Data as given in patent publication US20240138404A1, “DISPENSER AND METHOD OF USE THEREOF” (S.C. JOHNSON & SON, INC., priority 2019, published 2024).

How the values were obtained:
[1] = Emanation (release) rate of active agent from three-layer substrate 250 by weight loss over 40 days (Example 1, FIG. 13); type: physicochemical; settings: substrate 250, approx. 30 cm^2, dosed with approx. 75 mg active agent
[2] = Emanation rate of transfluthrin from dispensing device 200 with substrate 250 in a sealed chamber over 75 days (Example 2, FIGS. 15A-15C); type: physicochemical; settings: for constant emanation rate: dose about 2400 mg
Protocol: In connection with the examples herein, the emanation rates and the amount of active agent, e.g., an amount of transfluthrin, remaining in the substrate of the examples herein were measured by analyzing the weight loss of a particular substrate over time. More particularly, the amount of active agent remaining within a particular substrate may be calculated by first measuring the substrate 250 prior to dosing the substrate 250 with the active agent (or volatile material) and then subtracting that value from the weight of the substrate 250 at any given time after dosing. For example, with reference to Example 1, an initial weight of the substrate 250 was measured, the substrate 250 was dosed with an active agent (i.e., transfluthrin or metofluthrin), and a weight of the substrate 250 was measured multiple times after initial dosage and after emanation of the active agent into the ambient environment. The initial weight of the substrate 250 was then subtracted from a weight of the substrate 250 after initial dosage and this value indicated the remaining active agent within the substrate 250. Further, after determining the remaining active agent within the substrate 250, the amount of active agent (or volatile material) emanated to the ambient environment may also be calculated by subtracting the amount of active agent remaining in the substrate 250 from the initial dosage amount of the active agent. All weight measurements can be performed on an analytical scale. Further, the examples herein were conducted in a closed environment, such as a sealed chamber, having a controlled airflow rate.
In this example, the substrate 250 includes three layers, such as the first layer 252, the second layer 254, and the third layer 256. Further, in this embodiment, the first layer 252 is a woven material having a honeycomb weave pattern, a pore size of 3 mm and a thickness of 0.3 mm; the second layer 254 is a fibrous material constructed from polyester and the substrate 250 has a surface density of about 340 g/m^2; and the third layer 256 is a woven material having a honeycomb weave pattern, a pore size of 3 mm and a thickness of 0.3 mm. The substrate 250 was dosed with about 2400 mg of transfluthrin and the concentration of the transfluthrin within the substrate 250 at different locations in a sealed chamber was measured over a period of 75 days. During this trial, the substrate 250 was exposed to an airflow of about 4.8 meters/minute.

[3] = first location within sealed chamber (FIG. 15A)
[4] = second location within sealed chamber (FIG. 15B)
[5] = third location within sealed chamber (FIG. 15C)

## CC1(C)[C@H](C=C(Cl)Cl)[C@H]1C(=O)OCc1c(F)c(F)cc(F)c1F [transfluthrin]
[1]
  constant linear release (emanation) rate: about 1.5 mg/day
  time over which the substrate emanated the volatile material at constant linear rate: approximately 36 days
[2]; extrapolated from the linear regression lines of FIGS. 15A-15C
  period of emanation at constant, linear rate, from linear regression lines: exceeding one year
[2]; [3]
  period of constant emanation: greater than 70 days
  constant emanation rate: about 4 mg/day
[2]; [4]
  period of constant emanation: greater than 70 days
  constant emanation rate: about 6 mg/day
[2]; [5]
  period of constant emanation: greater than 70 days
  constant emanation rate: about 4 mg/day

## C/C=C/C1C(C(=O)OCc2c(F)c(F)c(COC)c(F)c2F)C1(C)C (centres unmarked) [metofluthrin]
[1]
  constant linear release (emanation) rate: about 1.9 mg/day
  time over which the substrate emanated the volatile material at constant linear rate: 20 days
